Article PMC7615677 (Science translational medicine, 2023)
“Also recorded” adds a separate entry of the source.

Legend:
[1] = system: T. cruzi (Tulahuen strain); assay: In vitro activity against other kinetoplastid parasites; type: cell-based; conditions: Trypanosoma cruzi
hERG = hERG (Homo sapiens, UniProt Q12809); assay: hERG channel test (Qpatch / Qube); type: cell-based; parameters: host or cells: Chinese hamster ovary cells; conditions: Qpatch hERG
Procedure: Two concentrations (1 and 30 μM, two replicates each) were tested at room temperature.

[2] = In vitro cytotoxicity assay; type: cell-based; conditions: human, U2OS human osteosarcoma cells
[3] = Plasma protein binding (rapid equilibrium dialysis); type: in vitro ADME; conditions: diluted to 10% in PBS, pH 7.4
Procedure: Human plasma was purchased from Innovative Research, Inc (Novi, MI, USA). Dog (beagle), rat (Sprague Dawley) and hamster (golden Syrian) plasma were procured from Valley Biomedical Products and Services, Inc. (Winchester, VA, USA). Mouse (BALB/c) plasma was collected in-house (animals sourced from Monash Animal Services, Monash University). All plasma was stored frozen at -20°C until use.
Plasma protein binding was assessed using rapid equilibrium dialysis (RED) according to methods published previously ([10]). […] Parallel spiked aliquots of 10% plasma were used to assess compound stability under the same incubation conditions. At the completion of the dialysis period, aliquots were taken from the donor and dialysate chambers to obtain measurements of the total and free concentration, respectively. The pH of the matrix and dialysate were confirmed to be within pH 7.4 ± 0.1 for the duration of the experiment.
Dialysis was conducted for 6 h and parallel non-dialyzed samples were included to confirm the absence of compound degradation. Binding to hepatocytes (at a cell density of 1 x 10^6 cells/mL) was calculated from the measured microsomal binding (at 1 mg/mL) as described previously ([26]). The fraction unbound (fu) was determined from the ratio of the dialysate to the donor concentration, assuming that the system was at steady state at the end of the dialysis period. For plasma, the data were corrected for the dilution factor to give a binding value for neat plasma according to previously published methods ([27]).

[4] = Seahorse mitochondrial stress test; type: cell-based; conditions: human, HepG2 cells; read-out: OCR Basal AC50
Procedure: (§1) Seahorse® 96 well plates were seeded with HepG2 cells and incubated overnight (37°C, 5% CO2). The media in all plate wells was then replaced with Seahorse® assay media and the plates were incubated (37°C, CO2 free) for a further 1 hour before placing in the Seahorse® XFe96 analyser (Agilent Technologies Inc, USA). […] OCR and ECAR were measured for 45 minutes before the sequential addition of oligomycin (ATP synthase inhibitor), FCCP (carbonyl cyanide 4-(trifluoromethoxy) phenylhydrazone, protonophore uncoupler) and rotenone plus antimycin A (Electron transport chain Complex I and III inhibitors respectively). Multiple measurements of OCR and ECAR were made following each of these additions.
(§2) Mean ± standard deviation of the compound ratio data were plotted vs log concentration and curves fitted (as described in [24]) and the minimum effective concentration (MEC) determined using limits based on the DMSO vehicle mean ± 2 standard deviations or, where these limits were deemed too narrow, the DMSO vehicle mean ± minimum limits set for each parameter. The AC50 was calculated using the curve and historical maximum (activation) and minimum (inhibition) responses and is defined as the concentration at which 50% of the maximum or minimum effect is observed, provided a clear concentration response relationship is seen.

HepG2 cells = assay: Seahorse mitochondrial stress test; type: cell-based
Procedure: as §1, §2

hERG, sequence (Q12809 whole entry): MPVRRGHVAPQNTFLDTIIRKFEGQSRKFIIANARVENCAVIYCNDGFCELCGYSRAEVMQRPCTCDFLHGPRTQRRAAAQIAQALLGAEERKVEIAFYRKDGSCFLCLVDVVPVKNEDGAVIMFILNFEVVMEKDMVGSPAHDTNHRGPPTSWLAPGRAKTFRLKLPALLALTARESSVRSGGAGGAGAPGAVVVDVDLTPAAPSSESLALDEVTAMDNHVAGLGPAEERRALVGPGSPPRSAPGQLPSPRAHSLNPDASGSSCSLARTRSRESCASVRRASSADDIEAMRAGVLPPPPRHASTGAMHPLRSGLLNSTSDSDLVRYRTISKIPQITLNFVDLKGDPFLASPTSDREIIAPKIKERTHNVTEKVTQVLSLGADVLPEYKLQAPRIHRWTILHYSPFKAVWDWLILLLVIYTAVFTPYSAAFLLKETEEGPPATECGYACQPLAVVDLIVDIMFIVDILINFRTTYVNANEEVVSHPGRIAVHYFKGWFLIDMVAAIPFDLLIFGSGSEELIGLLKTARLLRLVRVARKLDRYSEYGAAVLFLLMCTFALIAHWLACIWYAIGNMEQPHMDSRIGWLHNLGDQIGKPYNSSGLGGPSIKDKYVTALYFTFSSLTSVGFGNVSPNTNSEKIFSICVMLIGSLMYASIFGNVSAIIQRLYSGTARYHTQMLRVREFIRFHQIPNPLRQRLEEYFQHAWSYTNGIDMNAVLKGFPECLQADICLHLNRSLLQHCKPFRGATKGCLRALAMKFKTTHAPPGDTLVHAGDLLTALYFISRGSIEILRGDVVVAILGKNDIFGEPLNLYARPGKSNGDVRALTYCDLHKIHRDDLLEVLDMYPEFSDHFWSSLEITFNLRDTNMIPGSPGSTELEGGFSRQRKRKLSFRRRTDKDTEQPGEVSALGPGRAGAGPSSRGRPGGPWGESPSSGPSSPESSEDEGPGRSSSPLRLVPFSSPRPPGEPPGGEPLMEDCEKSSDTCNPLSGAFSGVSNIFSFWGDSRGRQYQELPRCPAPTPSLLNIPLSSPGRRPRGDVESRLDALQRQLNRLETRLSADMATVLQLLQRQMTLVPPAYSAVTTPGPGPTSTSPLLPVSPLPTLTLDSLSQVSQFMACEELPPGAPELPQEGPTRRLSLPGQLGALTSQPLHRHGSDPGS

Cc1[nH]c2nc(N)nc(C)c2c1-c1ccc(C#N)c2c1OCO2 [DNDI-6174] gave an EC50 [1] of less than 0.005 µM, an inhibition at 1 µM (hERG; 1 μM) of 3.81% and an inhibition at 10 µM (hERG; 10 μM) of 48%. It also gave a CC50 [2] greater than 80 µM, a fraction unbound at 24 h ([3]; BALB/c, mouse) of 0.12 and a fraction unbound at 24 h ([3]; Sprague Dawley, rat) of 0.069. It also gave a fraction unbound at 24 h ([3]; beagle, dog) of 0.05, a fraction unbound at 24 h ([3]; golden Syrian, hamster) of 0.09 and a fraction unbound at 24 h ([3]; human) of 0.059. For the same molecule, the AC50 at 45 min [4] was greater than 200 µM, the “OCR Basal minimum effect concentration (MEC)” value (HepG2 cells) was 95.6 µM and the “Reserve Capacity, ECAR, Maximum Capacity, ATP production, in words” value (HepG2 cells) was “No significant response observed on reserve; also recorded: no changes in Reserve Capacity, ECAR, Maximum Capacity or ATP production”. For the same molecule, the “margin of Seahorse OCR MEC over free concentration at predicted human therapeutic plasma Cmax” value (HepG2 cells) was “approximately 187 fold”, the “ECAR, in words” value (HepG2 cells; 200 μM) was “transient increase” and the “OCR Basal maximum reduction” value (HepG2 cells; 200 μM) was 14%.
